Assay results taken from patent US20080194638A1, “BIOAVAILABLE FORMULATIONS OF HETEROCYCLIC COMPOUNDS” (Forest Laboratories Holdings Limited, priority 2007, published 2008).
Structures can show the parent of a compound that is named as a salt.

Experiment: Solubility of crystalline forms
Format: physicochemical
Text: wherein R^1-R^4, P, X, Y, m, n and Ar are as defined therein. One such compound is N-(3,5-dichloropyrid-4-yl)-4-difluoromethoxy-8-methanesulfonamido-dibenzo[b,d]furan-1-carboxamide, the International nonproprietary name for which is oglemilast. The pharmacology and safety profiles for oglemilast have been described in, for example, Eur. Respir. J. (2004) 24 (Suppl 48): Abst 1391. Both US 2005/0027129 and International Publication No. WO 2006/040652 disclose methods for preparing oglemilast and pharmaceutically acceptable salts thereof, such as the sodium salt (see, e.g., Examples 30 and 31 of US publication No. 2005/0027129) and generically disclose formulations of oglemilast and the corresponding sodium salt. In these formulations, the active ingredient is present substantially in a crystalline form. […] In an attempt to increase the bioavailability of formulations containing, e.g., oglemilast, salt forms of the active ingredient have typically been used.

SMILES: CS(=O)(=O)Nc1ccc2oc3c(OC(F)F)ccc(C(=O)Nc4c(Cl)cncc4Cl)c3c2c1 [crystalline oglemilast, N-(3,5-dichloropyrid-4-yl)-4-difluoromethoxy-8-methanesulfonamido-dibenzo[b,d]furan-1-carboxamide]
- solubility: approximately 0.2 μg/mL

SMILES: CS(=O)(=O)Nc1ccc2oc3c(OC(F)F)ccc(C(=O)Nc4c(Cl)cncc4Cl)c3c2c1 [crystalline sodium salt of oglemilast]
- solubility: approximately 140 μg/mL
